Assay results published in patent US20250213474A1, “COMPOSITIONS AND METHODS FOR METAL CONTAINING FORMULATIONS CAPABLE OF MODULATING IMMUNE RESPONSE” (The Regents of the University of Michigan, priority 2021, published 2025).

Legend:
B16F10 cells = test: B16F10 tumor model, CMP versus other STING-activating formulations; format: in vivo, C57BL/6 mice
Protocol: FIGS. 23A-P: Robust therapeutic effect of CMPCDA in multiple tumor models. (FIGS. 23A-23J) Therapeutic effect of CMPCDA was compared with other CDA formulations and other STING agonists in an established B16F10 tumor model. (FIGS. 23A-23E) Tumor-bearing C57BL/6 mice were treated with CMPCDA, CDA-Zn particle (CZPCDA), CDA liposome), ADU-S100, or diABZI (all 5 μg doses of STING agonists, I.T.) on the indicated time points (FIG. 23A). Shown are (FIG. 23B) the individual tumor growth, (FIG. 23C) representative photos of tumors, (FIG. 23D) average tumor growth and (FIG. 23E) survival. […] Data were analyzed by two-way ANOVA (FIG. 23D, FIG. 23I, FIG. 23P) with Bonferroni multiple comparisons post-test. Survival of (FIG. 23E, FIG. 23J, FIG. 23P) was analyzed by Kaplan-Meier survival analysis with log-rank (Mantel-Cox) test. *p and #p in (FIG. 23P) denote statistical significance relative to the untreated and CDA groups, respectively.
All animals were cared for following federal, state, and local guidelines. […] Tumor size and survival were monitored every 2-4 days. Tumor size was calculated based on equation: volume=length×width^2×0.5. […] At indicated time points, the cytokine levels in serum were measured by ELISA assay in the Cancer Center Immunology Core of the University of Michigan. The amount of tumor antigen-specific T cells among PBMC were analyzed using the IFN-γ ELISPOT assay. […]

[1] = system: VX2 squamous cell carcinoma; test: Rabbit VX2 squamous cell carcinoma model; format: in vivo, New Zealand White rabbits; conditions: IV on W0 and W1; CMP-14:0 PA 0.5 mg, diABZi 1.5 mg; versus non-treated rabbits
Protocol: FIGS. 32A-E: CMP-14:0 PA exerts robust efficacy in rabbit VX2 squamous cell carcinoma model. (FIG. 32A) VX2 tumor tissues were cut into pieces and implanted within the muscle of the both hindlimbs on W-3.5. Rabbits were treated IV with 0.5 mg CMP-14:0 PA or 1.5 mg diABZi on W0 and W1. Shown are (FIG. 32B) total weight of primary tumors dissected from the muscle of the hindlimbs. (FIG. 32C) total volume of the primary tumor dissected from the muscle of the hindlimbs. (FIG. 32D) Measured tumor area ratio based on H&E staining slides of lung sections. (FIG. 32E) Representative images of the lungs.
New Zealand White rabbits were used for this study. All rabbits were housed individually in cages under constant 21° C. temperature and 12-h light/dark cycles. All animals were cared for following federal, state, and local guidelines. All animal experimental procedures performed were in accordance with and approved by the Institutional Animal Care & Use Committee (IACUC) at the University of Michigan, Ann Arbor and complied with the National Institutes of Health (NIH) Guidelines for the care and use of laboratory animals. For establishing VX2 squamous cell carcinoma in rabbits, 4 mm^3 fresh tumor tissues were cut into small pieces and resuspended in 1 mL PBS for intramuscular injections within the hindlimbs. Both hindlimbs were implanted with the tumor tissue suspension. […]

[2] = Safety of CMP-14:0 PA in VX2 tumor bearing rabbits (body weight, AST, ALT); format: in vivo, New Zealand White rabbits; conditions: 1.5 mg IV on W0 and W1
Protocol: FIGS. 31A-31C: CMP-14:0 PA is safe in rabbits. (FIG. 31A) VX2 tumor tissues were cut into pieces and implanted within the muscle of the both hindlimbs on W-3.5. […] (FIG. 31B) Serum was collected on W2 for measurement of AST and ALT levels as indicators of liver function. (FIG. 31C) Body weight changes in VX2 tumor bearing rabbits were monitored over the two cycles of treatment.
New Zealand White rabbits were used for this study. All rabbits were housed individually in cages under constant 21° C. temperature and 12-h light/dark cycles. All animals were cared for following federal, state, and local guidelines. All animal experimental procedures performed were in accordance with and approved by the Institutional Animal Care & Use Committee (IACUC) at the University of Michigan, Ann Arbor and complied with the National Institutes of Health (NIH) Guidelines for the care and use of laboratory animals. For establishing VX2 squamous cell carcinoma in rabbits, 4 mm^3 fresh tumor tissues were cut into small pieces and resuspended in 1 mL PBS for intramuscular injections within the hindlimbs. Both hindlimbs were implanted with the tumor tissue suspension. […] In the antitumor efficacy study, two doses of CMP-14:0 PA and diABZi were given with one week interval and the rabbits were euthanized 1 week after the last dose for primary tumors and lung metastasis analysis. […]

Substance: diABZI
- anti-tumor effect after I.T. therapy (B16F10 cells; 5 μg doses of STING agonists, I.T.): comparable anti-tumor responses
- anti-tumor effect after I.V. therapy (B16F10 cells; 20 μg doses, I.V.): only minor anti-tumor effects
- weight and volume of primary tumors in the hindlimbs [1]: did not decrease the weight or volume of primary tumors
- rabbits with elevated level of AST and ALT [2]: 1 out of 3
